Reference: patent US12331044B2, “Inhibitors of histone deacetylase useful for the treatment or prevention of HIV infection” (Merck Sharp & Dohme LLC, priority 2018, dated 2025)
Read-outs that look alike come from different tables or passages of the source.

Tests used:
[1] = biological target: human HDAC3/SMRT heterodimer (Homo sapiens (Human), UniProt O15379); assay: biochemical
[2] = biological target: HDAC6 (Homo sapiens (Human), UniProt Q9UBN7); assay: biochemical
[3] = test system: KARN cells (Jurkat 2C4); assay: cells; conditions: Homo sapiens
Experimental: KARN Assay Cell Maintenance
KARN cells (Jurkat 2C4) were licensed from the laboratory of Dr. John Karn, Case Western Reserve University, School of Medicine. […] An atmosphere of 5% CO2 and 90% humidity was used for all culture work.
These flasks were returned to the incubator.
The cells were gently resuspended in assay media (30 ml) and pelleted again. […] The cells were counted using the ViCell (Beckman Coulter) and diluted as necessary. […] The plates were covered and returned to the incubator prior to compound addition.
The reference compounds, DMSO and SAHA were then added to the compound plate. […] The final high concentration for SAHA and the test compounds in the assays was 40 μM. The final DMSO concentration in all wells was 0.4%. The minimal induction reference compound used was DMSO and the maximal induction reference compound used was SAHA (2 μM final concentration in the assay).
Day 3: The luciferase detection reagent was prepared by transferring the contents of one bottle of Steady-Glo buffer to one bottle of Steady-Glo aubstrate (Steady-Glo Luciferase Assay System, Promega, catalog number E2520), followed by gently mixing until the substrate was thoroughly dissolved and the solution was equilibrated to room temperature. […] The Steady-Glo Reagent was added to the plates (30 μl/well), which were then covered with a black lid and incubated for 10 minutes at room temperature. The plates were then read for luminescence on an Envision (Perkin Elmer) using the ultrasensitive mode (US LUM), 0.1 counts per second and 384-well aperture. Luminescence counts in the DMSO reference wells were considered as 0% induction, while those in the 2 μM SAHA reference wells were considered as 100% induction. Dose response curves were plotted as test compound concentration (X-axis) vs. percent activation (Y-axis) using a 4-parameter fit based on the Levenberg-Marquardt algorithm.

[4] = biological target: human HDAC2 (Homo sapiens (Human), UniProt Q92769); assay: HDAC2 inhibition assay (modified FLUOR DE LYS, 384-well); assay type: biochemical; conditions: […] nM enzyme, 40 μM substrate BML-KI104, 3 h pre-incubation; read-out: HDAC2 IC50
[5] = biological target: human HDAC1 (Homo sapiens (Human), UniProt Q13547); assay: biochemical
[6] = biological target: human HDAC8 (Homo sapiens (Human), UniProt Q9BY41); assay: HDAC8 inhibition assay (modified FLUOR DE LYS, 384-well); assay type: biochemical; conditions: […] nM enzyme, 200 μM substrate BML-KI178, 3 h pre-incubation; read-out: HDAC8 IC50
[7] = read-out: Karn EC50 nM 0.1% NHS, 0.1% normal human serum, luciferase induction, 2 μM SAHA = 100%
[8] = read-out: Karn EC50 nM 5% NHS, 5% normal human serum, luciferase induction, 2 μM SAHA = 100%

Sequence of human HDAC3/SMRT heterodimer (O15379 whole entry): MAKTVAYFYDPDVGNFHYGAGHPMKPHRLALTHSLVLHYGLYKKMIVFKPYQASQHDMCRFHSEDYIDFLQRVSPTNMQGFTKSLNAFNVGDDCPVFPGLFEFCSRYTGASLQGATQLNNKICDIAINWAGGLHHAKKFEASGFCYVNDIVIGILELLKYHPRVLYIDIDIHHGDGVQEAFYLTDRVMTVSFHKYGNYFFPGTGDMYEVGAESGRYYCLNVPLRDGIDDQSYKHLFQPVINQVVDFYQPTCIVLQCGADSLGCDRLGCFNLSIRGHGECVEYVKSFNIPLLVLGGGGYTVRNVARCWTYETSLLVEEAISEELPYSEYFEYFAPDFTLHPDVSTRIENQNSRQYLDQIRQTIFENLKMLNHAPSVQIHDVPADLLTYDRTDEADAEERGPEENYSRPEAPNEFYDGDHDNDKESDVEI
Sequence of human HDAC3/SMRT heterodimer (Q9Y618 1-899 partner): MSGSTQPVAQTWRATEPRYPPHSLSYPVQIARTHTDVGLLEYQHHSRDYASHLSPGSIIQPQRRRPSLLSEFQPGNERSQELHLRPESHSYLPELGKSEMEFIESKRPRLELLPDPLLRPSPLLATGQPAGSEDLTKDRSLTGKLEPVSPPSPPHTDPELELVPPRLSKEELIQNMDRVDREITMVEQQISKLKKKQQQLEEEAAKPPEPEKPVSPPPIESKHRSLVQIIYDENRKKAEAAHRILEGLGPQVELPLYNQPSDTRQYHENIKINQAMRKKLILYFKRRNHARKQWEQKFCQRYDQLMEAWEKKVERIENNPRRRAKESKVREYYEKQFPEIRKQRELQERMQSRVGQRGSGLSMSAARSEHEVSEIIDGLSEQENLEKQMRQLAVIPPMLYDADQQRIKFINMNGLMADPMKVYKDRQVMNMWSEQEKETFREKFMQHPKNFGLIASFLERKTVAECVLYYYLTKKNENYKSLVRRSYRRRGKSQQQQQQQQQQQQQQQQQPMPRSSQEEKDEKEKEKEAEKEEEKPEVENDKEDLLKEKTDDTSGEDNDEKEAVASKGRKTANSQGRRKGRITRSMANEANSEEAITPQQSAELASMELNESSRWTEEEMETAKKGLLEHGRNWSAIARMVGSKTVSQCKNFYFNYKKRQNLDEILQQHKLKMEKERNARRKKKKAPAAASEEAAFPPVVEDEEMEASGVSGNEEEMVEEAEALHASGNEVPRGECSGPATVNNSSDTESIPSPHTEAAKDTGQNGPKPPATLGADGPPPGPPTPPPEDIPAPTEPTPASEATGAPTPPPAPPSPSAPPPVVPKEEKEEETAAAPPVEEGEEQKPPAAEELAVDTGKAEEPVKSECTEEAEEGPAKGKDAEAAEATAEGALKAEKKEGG
Sequence of human HDAC2 (Q92769 whole entry): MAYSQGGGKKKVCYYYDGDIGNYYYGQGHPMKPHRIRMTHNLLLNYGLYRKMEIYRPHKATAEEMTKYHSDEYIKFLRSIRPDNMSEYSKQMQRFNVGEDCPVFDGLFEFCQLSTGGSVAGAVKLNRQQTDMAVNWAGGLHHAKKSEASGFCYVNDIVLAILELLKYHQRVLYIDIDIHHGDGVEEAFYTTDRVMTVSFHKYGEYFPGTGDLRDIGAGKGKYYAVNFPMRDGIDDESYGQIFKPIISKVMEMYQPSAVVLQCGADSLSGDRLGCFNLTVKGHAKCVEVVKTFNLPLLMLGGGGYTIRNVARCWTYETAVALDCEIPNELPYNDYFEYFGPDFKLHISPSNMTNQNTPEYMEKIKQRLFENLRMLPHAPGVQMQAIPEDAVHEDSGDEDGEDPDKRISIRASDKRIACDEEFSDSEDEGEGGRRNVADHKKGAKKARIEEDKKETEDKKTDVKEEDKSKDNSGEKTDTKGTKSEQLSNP
Sequence of HDAC6 (Q9UBN7 whole entry): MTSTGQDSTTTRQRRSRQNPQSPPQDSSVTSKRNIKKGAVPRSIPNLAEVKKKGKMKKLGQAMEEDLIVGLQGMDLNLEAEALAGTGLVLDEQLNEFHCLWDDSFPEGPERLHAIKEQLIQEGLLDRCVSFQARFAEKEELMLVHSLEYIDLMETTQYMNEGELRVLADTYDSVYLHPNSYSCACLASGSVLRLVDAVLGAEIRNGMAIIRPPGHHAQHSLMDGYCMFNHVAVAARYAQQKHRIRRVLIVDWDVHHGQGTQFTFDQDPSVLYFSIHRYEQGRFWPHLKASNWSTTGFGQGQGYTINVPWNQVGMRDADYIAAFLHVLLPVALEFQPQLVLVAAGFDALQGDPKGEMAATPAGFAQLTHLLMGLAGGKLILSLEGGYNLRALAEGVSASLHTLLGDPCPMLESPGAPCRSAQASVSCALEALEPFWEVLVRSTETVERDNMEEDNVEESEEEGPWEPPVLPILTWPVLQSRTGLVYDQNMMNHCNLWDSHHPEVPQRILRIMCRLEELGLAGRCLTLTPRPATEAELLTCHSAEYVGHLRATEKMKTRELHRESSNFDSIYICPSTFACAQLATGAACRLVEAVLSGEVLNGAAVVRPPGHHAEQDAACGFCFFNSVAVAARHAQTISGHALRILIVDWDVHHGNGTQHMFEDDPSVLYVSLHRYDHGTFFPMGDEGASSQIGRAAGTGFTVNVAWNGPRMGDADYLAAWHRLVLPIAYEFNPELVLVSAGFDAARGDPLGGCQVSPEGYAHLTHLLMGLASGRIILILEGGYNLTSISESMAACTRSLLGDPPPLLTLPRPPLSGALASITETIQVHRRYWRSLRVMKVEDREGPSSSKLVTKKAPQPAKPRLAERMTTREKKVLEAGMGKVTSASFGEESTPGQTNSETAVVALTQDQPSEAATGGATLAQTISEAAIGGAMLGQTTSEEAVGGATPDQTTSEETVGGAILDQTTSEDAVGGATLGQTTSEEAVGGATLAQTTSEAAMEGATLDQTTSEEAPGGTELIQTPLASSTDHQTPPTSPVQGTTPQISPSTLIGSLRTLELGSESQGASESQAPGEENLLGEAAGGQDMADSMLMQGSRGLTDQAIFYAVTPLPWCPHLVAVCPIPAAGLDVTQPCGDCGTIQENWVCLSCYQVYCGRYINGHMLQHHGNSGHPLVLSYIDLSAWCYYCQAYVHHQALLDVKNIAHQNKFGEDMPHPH
Sequence of human HDAC8 (Q9BY41 whole entry): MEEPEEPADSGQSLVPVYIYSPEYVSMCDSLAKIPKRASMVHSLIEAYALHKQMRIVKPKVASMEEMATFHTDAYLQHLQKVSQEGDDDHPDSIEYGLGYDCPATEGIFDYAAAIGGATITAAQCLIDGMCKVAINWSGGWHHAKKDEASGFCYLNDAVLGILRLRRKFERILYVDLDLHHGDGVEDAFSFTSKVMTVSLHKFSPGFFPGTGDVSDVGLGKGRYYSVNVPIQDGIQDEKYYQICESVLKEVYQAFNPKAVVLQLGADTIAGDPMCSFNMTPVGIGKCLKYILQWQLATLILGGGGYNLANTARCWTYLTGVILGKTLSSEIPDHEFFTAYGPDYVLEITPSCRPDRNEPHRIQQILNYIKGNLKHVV
Sequence of human HDAC1 (Q13547 whole entry): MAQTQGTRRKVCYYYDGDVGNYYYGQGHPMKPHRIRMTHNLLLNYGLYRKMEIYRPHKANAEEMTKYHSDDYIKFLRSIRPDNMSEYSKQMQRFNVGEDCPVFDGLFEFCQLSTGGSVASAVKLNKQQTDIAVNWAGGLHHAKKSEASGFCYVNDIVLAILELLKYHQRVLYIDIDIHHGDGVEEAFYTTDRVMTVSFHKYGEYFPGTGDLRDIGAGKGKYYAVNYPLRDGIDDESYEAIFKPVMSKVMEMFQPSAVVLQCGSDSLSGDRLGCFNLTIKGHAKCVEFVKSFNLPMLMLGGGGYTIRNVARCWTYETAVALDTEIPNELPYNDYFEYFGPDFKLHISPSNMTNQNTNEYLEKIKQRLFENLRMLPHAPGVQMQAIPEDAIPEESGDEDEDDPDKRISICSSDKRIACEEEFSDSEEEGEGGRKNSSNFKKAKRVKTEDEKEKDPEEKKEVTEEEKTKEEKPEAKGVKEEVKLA

N#Cc1nc(-c2ccc(F)cc2)[nH]c1[C@@H](N)CCCCCC(=O)c1ncco1 [Example 185, (S)-5-(1-amino-7-(oxazol-2-yl)-7-oxoheptyl)-2-(4-fluorophenyl)-1H-imidazole-4-carbonitrile] was tested. Which IC50 [1] did it give?
The IC50 was 3.9 nM.

What about the IC50 [2] of the same compound?
Its IC50 is ≥ 45000 nM.

And the EC50 [3, 7]?
The EC50 was 250 nM.

And the EC50 [3, 8]?
Its EC50 is 690 nM.

And the IC50 [4]?
The IC50 was 15 nM.

And the IC50 [5]?
The IC50 was 2.9 nM.

What about the IC50 [6] of the same compound?
Its IC50 is 6700 nM.

Which results are given for COc1cc2nc(C)ccc2cc1-c1cnc([C@H](CCCCCC(=O)c2ncco2)NC2CC(OC)C2)[nH]1 (stereo partly drawn) [Example 84, (S)-7-(5-(7-methoxy-2-methylquinolin-6-yl)-1H-imidazol-2-yl)-7-((3-methoxycyclobutyl)amino)-1-(oxazol-2-yl)heptan-1-one]?
IC50 [1]: 7.9 nM; IC50 [2]: 13000 nM; EC50 [3, 7]: 490 nM; EC50 [3, 8]: 540 nM; IC50 [4]: 22 nM; IC50 [5]: 4 nM; IC50 [6]: 3100 nM

Which IC50 [1] does the source give for COc1ncccc1-c1cnc(C(CCCCCC(=O)c2ncco2)NC(=O)[C@H]2CC23CCN(C)CC3)o1 (stereo partly drawn) [Example 114, (1S)-N-(1-(5-(2-methoxypyridin-3-yl)oxazol-2-yl)-7-(oxazol-2-yl)-7-oxoheptyl)-6-methyl-6-azaspiro[2.5]octane-1-carboxamide] here?
Its IC50 is 13 nM.

What about the IC50 [2] of the same compound?
The IC50 was > 900 nM.

And the EC50 [3, 7]?
The EC50 was 3400 nM.

What about the EC50 [3, 8] of the same compound?
Its EC50 is 4200 nM.

And the IC50 [4]?
The IC50 was 120 nM.

What about the IC50 [5] of the same compound?
Its IC50 is 26 nM.

What about the IC50 [6] of the same compound?
The IC50 was > 900 nM.

Which results are given for N[C@@H](CCCCCC(=O)c1ncco1)c1ncc(-c2ccc3ncccc3c2)[nH]1 [Example 16, (S)-7-amino-1-(oxazol-2-yl)-7-(5-(quinolin-6-yl)-1H-imidazol-2-yl)heptan-1-one]?
IC50 [1]: 2.6 nM; IC50 [2]: 33000 nM; EC50 [3, 7]: 120 nM; EC50 [3, 8]: 170 nM; IC50 [4]: 8.8 nM; IC50 [5]: 2.7 nM; IC50 [6]: 1400 nM

Which IC50 [1] does the source give for COc1cc2nc(C)ccc2cc1-c1cnc([C@H](CCCCCC(=O)c2ncco2)Nc2ncccn2)[nH]1 [Example 85, (S)-7-(5-(7-methoxy-2-methylquinolin-6-yl)-1H-imidazol-2-yl)-1-(oxazol-2-yl)-7-(pyrimidin-2-ylamino)heptan-1-one] here?
The IC50 was 1.5 nM.

And the IC50 [2]?
The IC50 was 250 nM.

What about the EC50 [3, 7] of the same compound?
The EC50 was 67 nM.

And the EC50 [3, 8]?
The EC50 was 210 nM.

And the IC50 [4]?
The IC50 was 11 nM.

What about the IC50 [5] of the same compound?
The IC50 was 2.3 nM.

And the IC50 [6]?
The IC50 was 210 nM.

For COc1cc2nc(C)ccc2cc1-c1cnc([C@H](CCCCCC(=O)c2ccon2)NC(=O)[C@H]2CC23CCN(C)CC3)[nH]1 [Example 110, (S)-N-((S)-7-(isoxazol-3-yl)-1-(5-(7-methoxy-2-methylquinolin-6-yl)-1H-imidazol-2-yl)-7-oxoheptyl)-6-methyl-6-azaspiro[2.5]octane-1-carboxamide], which IC50 [1] is on record?
The IC50 was 0.18 nM.

And the IC50 [2]?
The IC50 was 2500 nM.

And the EC50 [3, 7]?
The EC50 was 11 nM.

What about the EC50 [3, 8] of the same compound?
The EC50 was 11 nM.

And the IC50 [4]?
The IC50 was 0.87 nM.

What about the IC50 [5] of the same compound?
The IC50 was 0.18 nM.

What about the IC50 [6] of the same compound?
Its IC50 is 2.7 nM.

N[C@@H](CCCCCC(=O)c1ncco1)c1[nH]c(-c2ccc(F)cc2)nc1Cl [Example 25, (S)-7-amino-7-(4-chloro-2-(4-fluorophenyl)-1H-imidazol-5-yl)-1-(oxazol-2-yl)heptan-1-one] was tested. Which IC50 [1] did it give?
The IC50 was 0.38 nM.

And the IC50 [2]?
The IC50 was ≥ 45000 nM.

What about the EC50 [3, 7] of the same compound?
The EC50 was 340 nM.

And the EC50 [3, 8]?
Its EC50 is 650 nM.

And the IC50 [4]?
Its IC50 is 5 nM.

What about the IC50 [5] of the same compound?
The IC50 was 0.66 nM.

What about the IC50 [6] of the same compound?
Its IC50 is 6300 nM.

What does the source list for CN(C)CC(=O)N[C@@H](CCCCCC(=O)c1ncco1)c1[nH]c(-c2ccc(F)cc2)nc1C#N [Example 186, (S)-N-(1-(4-cyano-2-(4-fluorophenyl)-1H-imidazol-5-yl)-7-(oxazol-2-yl)-7-oxoheptyl)-2-(dimethylamino)acetamide]?
IC50 [1]: 0.39 nM; IC50 [2]: ≥ 45000 nM; EC50 [3, 7]: 12 nM; EC50 [3, 8]: 21 nM; IC50 [4]: 1.7 nM; IC50 [5]: 0.28 nM; IC50 [6]: 220 nM

How did the IC50 [1] turn out when O=C(CCCCC[C@H](NC(=O)c1cncs1)c1[nH]c(-c2ccc(F)cc2)nc1Cl)c1ncco1 [Example 88, (S)-N-(1-(4-chloro-2-(4-fluorophenyl)-1H-imidazol-5-yl)-7-(oxazol-2-yl)-7-oxoheptyl)thiazole-5-carboxamide] was run?
The IC50 was 0.37 nM.

And the IC50 [2]?
The IC50 was ≥ 45000 nM.

And the EC50 [3, 7]?
The EC50 was 25 nM.

And the EC50 [3, 8]?
Its EC50 is 380 nM.

What about the IC50 [4] of the same compound?
The IC50 was 1.4 nM.

What about the IC50 [5] of the same compound?
Its IC50 is 0.22 nM.

And the IC50 [6]?
Its IC50 is 61 nM.

Cc1ccc2cc(-c3c[nH]c([C@H](CCCCCC(=O)c4ncco4)NCc4ccccc4)n3)ccc2n1 [Example 81, (S)-7-(benzylamino)-7-(5-(2-methylquinolin-6-yl)-1H-imidazol-2-yl)-1-(oxazol-2-yl)heptan-1-one] was tested. Which IC50 [1] did it give?
The IC50 was 3.7 nM.

And the IC50 [2]?
The IC50 was 21000 nM.

And the EC50 ([3]; read-out: Karn EC50 nM 0.1% NHS)?
The EC50 was 430 nM.

And the EC50 ([3]; read-out: Karn EC50 nM 5% NHS)?
Its EC50 is 690 nM.

What about the IC50 [4] of the same compound?
The IC50 was 16 nM.

And the IC50 [5]?
Its IC50 is 3.4 nM.

What about the IC50 [6] of the same compound?
The IC50 was 4900 nM.
